According to US10980764B1, “Exogenous ketone supplements for reducing anxiety-related behavior” (priority 2016, dated 2021):

Tests used:
[1] = test system: Sprague-Dawley (SPD) rats; experiment: Elevated plus maze (EPM) after 83 days chronic feeding, Study 1; assay type: in vivo, rat; settings: compared to control (SD)
Procedure: Generally, exogenous ketone supplements were tested and fed chronically for 83 days and administered sub-chronically for 7 days by gavage, followed by assessment of anxiety measures on elevated plus maze (EPM) on 97 male SPD rats.
In order to familiarize the animals to the intragastric gavage method, tap water was gavaged for 5 days before ketone supplementation. A total of 48 male SPD rats were fed for 83 days with either standard rodent chow (SD)+water application (˜25 g/kg b.w. water/day) (SD/control group; n=9) or SD+ketone supplementation by gavage.
(§1) EPM (COULBOURN Instruments) was used to assess anxiety-related behavior of the rats after 83 days of chronic feeding or after 7 days of oral gavage. EPM experiments were carried out under non-stressful conditions (in a dimly lit and quiet room) between 12.00 and 14.00 hours.
(§2) The rats were transferred in their home cage to the experimental room 30 min prior to beginning the experiment. Briefly, rats were placed in the intersection of the four arms of the EPM, facing the open arm opposite to where the experimenter was and their behavior was recorded for 5 minutes. The amount of time spent and number of entries made on the open arms, closed arms and the center zones were recorded. Latency to entry into the closed arms and the distance travelled in each zones was also measured in chronically treated SPD rats. Notes were made on other ethological measures such as number of rears, head dips, fecal boli, and freezing, or stretched-attend postures.
(§3) At the end of the 5-minute test the rats were removed from the maze and placed back into their home cage. The maze was cleaned with 70% alcohol and after it with tap water and dried with paper towel between rats. The primary method for data collection was a video-tracking system with computer interface and video camera (SMART V3.0 PLATFORM, PANLAB, Harvard Apparatus, USA), to automatically collect behavioral data in SPD rats. A blinded observer was present in the testing room separated from the maze by a curtain, and manually collected EPM data in both SPD and WAG/Rij animals at the end of treatments.
(§4) All data are presented as the mean±standard error of the mean (SEM). The effects of ketone supplementations on anxiety level were compared, as well as on blood βHB and glucose levels to control or/and baseline levels. Data analysis was performed using GraphPad PRISM version 6.0a. Results were considered significant when p<0.05. Significance was determined by unpaired t-test. Blood ketone, blood glucose, and body weight change were compared using a two-way ANOVA with Tukey's multiple comparisons test and unpaired t-test.

[2] = test system: Sprague-Dawley (SPD) rats; experiment: EPM after 7 days oral gavage, SPD rats, Study 1; assay type: in vivo, rat; settings: compared to control (SD); for Time spent in the center: 7 days (gavage 5 g/kg b.w./day or KD fed)
Procedure: as §1, §2, §3, §4

[3] = Blood βHB and glucose levels (PRECISION XTRA), WAG/Rij rats, Study 1; assay type: in vivo, rat; settings: for Blood βHB: WAG/Rij rats, after 7 days of gavaging ~2.5 g/kg b.w./day, compared to baseline; for Glucose, Mean Diff., Tukey's multiple comparisons test (Compare S-D to WagRij) / βHB, Mean Diff., Tukey's multiple comparisons test (Compare S-D to WagRij): WR (WAG/Rij) rats, own Baseline minus 7 days of the same group
[4] = Body weight, SPD rats, Study 1; assay type: in vivo, rat; settings: for Body Weight (7 days), Mean Diff., Tukey's multiple comparisons test: in g (unit assumed)
Procedure: The body weight of all animals was recorded before ketone treatments started (before) and after the last ketone treatments (after).
Results were considered significant when p<0.05. […]

SPD rats = experiment: EPM after 7 days oral gavage, SPD rats, Study 3; assay type: in vivo, rat; settings: 7 days gavage 5 g/kg b.w./day
Procedure: Generally, exogenous ketone supplementation was tested by adding to food and feeding chronically for 83 days in SPD rats and administering sub-chronically for 7 days in both rat models by daily intragastric gavage bolus, followed by assessment of anxiety measures on EPM. The groups included standard diet (SD) or SD+ketone supplementation.
EPM (Coulbourn Instruments) was used to assess anxiety-related behavior of the rats after 83 days of chronic feeding or after 7 days of oral gavage. EPM experiments were carried out under non-stress conditions (in dimly lit and quiet room) between 12.00 and 14.00 hours.
The rats were transferred in their home cage to the experimental room 30 min prior to beginning the experiment. Briefly, rats were placed in the intersection of the four arms of the EPM, facing the open arm opposite to where the experimenter was and their behavior was recorded for 5 minutes. The amount of time spent and number of entries made on the open arms, closed arms and the center zones were video recorded. Latency to entry into the closed arms and the distance travelled in each zones was also measured in chronically treated SPD rats. […] At the end of the 5-minute test, the rats were removed from the maze and placed back into their home cage. The maze was cleaned with 70% alcohol and after it with tap water and dried with paper towel between rats. The primary method for data collection was a video-tracking system with computer interface and video camera (SMART V3.0 PLATFORM, Panlab, Harvard Apparatus, USA), to automatically collect behavioral data in SPD rats. A blinded observer was present in the testing room separated from the maze by a curtain, and collected EPM data in both SPD and WAG/Rij animals.
Results were considered significant when p<0.05.

[5] = Blood βHB and glucose levels (Precision Xtra), SPD rats, Study 3
From the text: A total of 48 male SPD rats were fed for 83 days with either standard rodent chow (2018 Teklad Global 18% Protein Rodent Diet (#2018), Harlan) (SD/control; n=9) or SD+ketone supplementation. […] Higher dose was used for chronic administration, as the rats were consuming food-integrated ketone supplementation throughout the day, not at a single time point.
In order to familiarize the animals to the intragastric gavage method, water was gavaged for 5 days prior to ketone supplementation.
(§5) In the chronic feeding study, blood βHB and glucose levels were measured 24 hours before the 1st day of ketone treatments (baseline levels) and at the 13th week after the EPM experiment. In the 7-day oral gavage studies, blood βHB and glucose levels were measured 24 hours before the 1st day of ketone treatments (baseline levels; SPD and WAG/Rij rats), 24 hours after the first gavage, and 60 min after gavage on the 7th day (SPD and WAG/Rij rats). Whole blood samples (10 μL) were taken from the saphenous vein for analysis of blood glucose (mg/dl) and βHB (mmol/1) levels with the commercially available glucose and ketone (βHB) monitoring system Precision Xtra™ (Abbott Laboratories, Abbott Park, Ill., USA).
as §4, with “anxiety-related behavior” for “anxiety level”, “one-way ANOVA with Fisher s LSD test for the behavioral data.” for “unpaired t-test.”, “test.” for “test and unpaired t-test.”

[6] = Blood βHB and glucose levels (Precision Xtra), WAG/Rij rats, Study 3
Procedure: For the sub-chronic gavage administration, the gavage dose was used that induced desired elevation of blood ketone based on the current inventors' previous studies (Kesl et al. 2016).
as §5
as §4, with “anxiety-related behavior” for “anxiety level”, “one-way ANOVA with Fisher s LSD test for the behavioral data.” for “unpaired t-test.”, “test.” for “test and unpaired t-test.”

[7] = After:SD (control) minus After:treated group

In the case of CC(=O)CC(=O)OCCC(C)OC(=O)CC(C)=O (stereo not drawn) [KE, 1,3-butanediol-acetoacetate diester], the “Distance traveled in the closed arms” value ([1]; chronic feeding 83 days) is reported as “significantly less”, the “Latency to first entrance of closed arms” value ([1]; chronic feeding 83 days) is reported as “significantly greater” and the “Time spent in the center” value [2] is reported as “decreased”. The “Time spent in the open arms” value ([2]; 7 days gavage 5 g/kg b.w./day) was “increased”, the “Blood βHB” value [3] was “elevated” and the “Glucose, Mean Diff., Tukey's multiple comparisons test (Compare S-D to WagRij)” value [3] was -2.75 mg/dL. The “βHB, Mean Diff., Tukey's multiple comparisons test (Compare S-D to WagRij)” value [3] was −0.6125 mmol/1, the “Body Weight (7 days), Mean Diff., Tukey's multiple comparisons test” value [4, 7] was 37.03 and the Body weight ([4]; after chronic feeding (week 13), compared to control, listed as SD+LKE) was “higher”. The “Body Weight (90 days), Mean Diff., Tukey's multiple comparisons test” value ([4]; chronic feeding, After:SD (control) minus After:treated group) was 73.96, the “Entries to the closed arms” value (SPD rats; compared to control) was “less frequent” and the “Time spent in the center” value (SPD rats; compared to control) was “decreased”. For the same compound, the “Time spent in the open arms” value (SPD rats; compared to control) was “increased”, the “Blood βHB levels” value ([5]; SPD rats, 24 hours after a single gavage, compared to control) was “elevated” and the Blood glucose ([5]; SPD rats, after 13 weeks of chronic feeding) was “lower”. For the same compound, the “Blood βHB levels” value ([5]; SPD rats, after 83 days of chronic feeding, compared to control) was “significantly elevated”, the Blood glucose levels ([5]; SPD rats, sub-chronic, at 24 hours, compared to control) was “lower” and the Glucose levels ([6]; WAG/Rij rats, after 24h, compared to baseline levels) was “lower”. For the same compound, the Glucose levels ([6]; WAG/Rij rats, after 7 days compared to the level at 24h) was “elevated” and the “Blood βHB” value ([6]; WAG/Rij rats, after 7 days of gavage, compared to baseline, 24 hours and control) was “elevated”.
With Na^+/K^+-βHB mineral salt [KS] the “Time spent in the open arms” value ([1]; chronic feeding 83 days (~25 g/kg b.w./day; LKE ~10)) was “significantly more”, the “Distance traveled in the center” value ([1]; chronic feeding 83 days) was “more” and the “Distance traveled in the closed arms” value ([1]; chronic feeding 83 days) was “significantly less”. The “Distance traveled in the open arms” value ([1]; chronic feeding 83 days) was “significantly greater”, the “Latency to first entrance of closed arms” value ([1]; chronic feeding 83 days) was “significantly greater” and the “Time spent in the center” value ([1]; chronic feeding 83 days) was “significantly more”. The “Time spent in the closed arms” value ([1]; chronic feeding 83 days) was “significantly less”, the “Time spent in the center” value [2] was “decreased” and the “Entries to the center” value ([2]; 7 days gavage 5 g/kg b.w./day) was “fewer times”. For the same compound, the “Entries to the closed arms” value ([2]; 7 days gavage 5 g/kg b.w./day) was “less frequent”, the “Blood βHB” value [3] was “elevated” and the “Glucose, Mean Diff., Tukey's multiple comparisons test (Compare S-D to WagRij)” value [3] was -6.5 mg/dL. The “βHB, Mean Diff., Tukey's multiple comparisons test (Compare S-D to WagRij)” value [3] was −0.5375 mmol/1, the “Body Weight (7 days), Mean Diff., Tukey's multiple comparisons test” value [4, 7] was 48.25 and the “Entries to the closed arms” value (SPD rats; compared to control) was “less frequent”. For the same compound, the “Time spent in the center” value (SPD rats; compared to control) was “decreased”, the “Entries to the center” value (SPD rats; compared to control (SD)) was “fewer times” and the “Blood βHB” value ([5]; rat, in vivo) was “elevated”. The “Blood βHB” value ([6]; rat, in vivo) was “elevated”.
